{
  "source": "paper PMC7821884",
  "about": "“BRAF inhibition protects against hearing loss in mice” (Science Advances, 2020)",
  "key": {"IMR-32": {"tested_on": "IMR-32", "assay": "Tumor Cell Titer-Glo viability assay, IMR-32", "format": "cell-based, human", "conditions": "IMR-32, 35 μM + 15 μM cisplatin, 48 hours", "description": "In clinical settings, cisplatin is used to treat several tumor types, including neuroblastoma and lung carcinoma. […] Medium-alone–, cisplatin-alone–, and dabrafenib-alone–treated cells were used as controls, and viability was reported as percent survival compared to medium alone (Fig. 4E).\nThree human neuroblastoma cell lines IMR-32, SH-SY5Y, and, SK-N-AS, as well as three human lung carcinoma cell lines SHP-77 small cell, H1155 non–small cell, and A549 non–small cell, were used to determine the compounds’ effect on cisplatin’s tumor-killing efficacy ([77]–[83]). Cell lines were purchased from the American Type Culture Collection (ATCC), and cell culture was conducted according to ATCC specifications. Neuroblastoma cell lines IMR-32 and SH-SY5Y are maintained in Dulbecco’s modified Eagle’s medium (DMEM) 1× with glucose (4.5 g/liter), L-glutamine, and sodium pyruvate (10-013-CV, Corning) with 10% fetal bovine serum (FBS) (35011132, Corning) and ampicillin (50 μg/ml; A5354-10ML, Sigma-Aldrich) added. The SK-N-AS cell line is maintained in DMEM 1× with D-glucose (4.5 g/liter), L-glutamine, and 25 mM Hepes (12430-054, Gibco) with 10% FBS, 0.1 mM nonessential amino acids, and ampicillin (50 μg/ml) added. A549 cells are maintained in F-12K medium with L-glutamine (30-2004, ATCC) with 10% FBS and ampicillin (50 μg/ml) added. […]"}, "[1]": {"tested_on": "BRAF, MEK, and ERK phosphorylation", "assay": "Western blot of cisplatin-induced MAPK phosphorylation in HEI-OC1 cells", "conditions": "14, 35, or 75 μM, 1 hour pretreatment, 50 μM cisplatin 1 hour", "procedure": "Whole lysates of HEI-OC1 cells were prepared in lysis buffer (9803, Cell Signaling Technology) after adding protease (cOmplete ULTRA Tablets 05892791001) and phosphatase (PhosSTOP 04906845001) inhibitors (Roche). The lysates were centrifuged for 10 min at 15,000g at 4°C, and the supernatants were collected. Protein concentrations in protein solutions were determined with the BCA protein assay kit (23235, Thermo Fisher Scientific). Forty micrograms of total cell lysate was loaded on 4 to 20% SDS–polyacrylamide gel electrophoresis gels. The following antibodies were used for immunoblot analysis: anti-BRAF (14814S), anti-pBRAF (Ser^445, 2696S), anti-ERK1/2 (4695), anti-pERK1/2 (Thr^202/Tyr^204, 9101S), anti-MEK1/2 (9122S), and anti-pMEK1/2 (Ser^217/221, 41G9S) were obtained from Cell Signaling Technologies and anti–β-actin (C4; SC-47778) was purchased from Santa Cruz. The antibodies were used at dilutions ranging from 1:500 to 1:1000. Anti-mouse (P0447) and anti-rabbit (P0448) secondary antibodies were purchased from Dako Laboratories and diluted 1:5000. National Institutes of Health (NIH) ImageJ software was used to quantify the band intensities and recorded as a ratio to loading control β-actin. Each Western blot series (n) was carried out using cell lysates from separate experiments. Blot intensities were quantified using NIH ImageJ software."}, "[2]": {"tested_on": "phosphorylated ERK (pERK)", "assay": "pERK immunostaining of cisplatin-treated cochlear explants", "format": "cell-based, mouse", "conditions": "3 μM, 1 hour pretreatment, 10 min 150 μM cisplatin", "description": "Tissue samples were then imaged via confocal microscopy."}, "[3]": {"conditions": "cited from earlier work"}, "P42 FVB mice": {"tested_on": "P42 FVB mice", "assay": "Noise-induced hearing loss in adult mice (ABR, DPOAE, Ctbp2 puncta, pERK)", "format": "in vivo, mouse", "method": "Noise injury cannot always be predicted, and pretreatment is often not an option.\nCompounds were dissolved in a mixture of 10% DMSO, 5% Tween 80 (P1754, Sigma-Aldrich), 40% PEG-E-300 (91462-1KG, Sigma-Aldrich), and 45% 0.9% saline.\nABR in mice was measured for left ears as described previously with minor modifications ([13], [34]). In brief, ABR waveforms were recorded in a sound booth (Industrial Acoustic Company) by using subdermal needles positioned in the skull, below the pinna, and at the base of the tail, and the responses were fed into a low-impedance Medusa digital biological amplifier system (RA4L; TDT; 20-dB gain). At each frequency, the stimulus intensity was reduced from 90 to 0 dB in 10-dB steps to determine the threshold decibel SPL when the electrical response was just above the noise floor. ABR waveforms were averaged in response to 500 tone bursts. The recorded signals were filtered by a band-pass filter from 300 Hz to 3 kHz. Pretreatment ABR recordings of adult FVB mice (aged 6 weeks) were acquired 1 week before all treatments, and posttreatment ABR measurements were recorded 21 days after cisplatin treatment or 14 days after noise exposure. ABR threshold was determined by the presence of any of three or more of the five waveform peaks. […] All thresholds and shifts were determined independently by two experimenters for each mouse. Individual ABR wave 1 amplitudes were measured as the difference between the positive peak and the following negative trough.\nMice were placed in individual cages in a custom-made acrylic chamber. The sound stimulus was produced by System RZ6 (TDT) equipment and amplified using a 75-A power amplifier (Crown). Sound was delivered to the acrylic chamber via a speaker horn (JBL). The SPL was calibrated with a 1/4-inch free-field microphone (PCB). Before experimental noise exposure, four quadrants of the cage inside the chamber were sampled with the 1/4-inch microphone to ensure that the SPL varied by <0.5 dB across the measured positions. Adult mice were then exposed to 2 hours of octave band noise (8 to 16 kHz) at 100 dB.\nOrgans of Corti were costained with anti-Ctbp2 and anti–myosin VI antibodies. Confocal imaging was performed using a Zeiss 700 scanning confocal microscope with a 63× objective. Visualization and projections were performed using ZEN 2009 or ZEN 2012 software (Zeiss). Ctbp2 puncta were visualized and counted on the reconstructed three-dimensional images by using the ZEN 2009 or ZEN 2012 three-dimensional construct function as previously reported ([54]). […] Images were acquired around 16-kHz cochlear regions, and each image included 12 to 18 IHCs that were quantified as total number of Ctbp2 puncta divided by total number of IHCs per image."}},
  "data": [
    {"smiles": "CC(C)(C)c1nc(-c2cccc(NS(=O)(=O)c3c(F)cccc3F)c2F)c(-c2ccnc(N)n2)s1", "note": "[dabrafenib]", "values": [
      {"measurement": "effect on tumor cell death when combined with cisplatin", "setting": "IMR-32", "value": "increased tumor cell death"},
      {"measurement": "effect on cisplatin-induced BRAF, MEK, and ERK phosphorylation", "setting": "[1]", "value": "mitigated these changes in a dose-dependent manner"},
      {"measurement": "effect on cisplatin-induced ERK phosphorylation in DC and IPhC regions", "setting": "[2]", "value": "prevented ERK activation"},
      {"measurement": "half-life in circulation", "setting": "[3]", "value": "roughly 8 hours"},
      {"measurement": "loss of Ctbp2 puncta per IHC at 16-kHz region", "setting": "P42 FVB mice; 100 mg/kg pretreatment", "value": "partially rescued"},
      {"measurement": "effect on noise-reduced 16-kHz ABR wave 1 amplitude", "setting": "P42 FVB mice; 100 mg/kg pretreatment, 80- and 90-dB SPL", "value": "significantly mitigated"},
      {"measurement": "noise-induced ERK phosphorylation in SCs", "setting": "P42 FVB mice; pretreatment, 3 hours after noise", "value": "reduced ERK phosphorylation"}
    ]}
  ]
}
